PubChem BioAssay (NCI)
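A five-concentration, 48-hour dose response in 96-well plates underlies each endpoint, interpolated linearly between surrounding concentrations. At the TGI there is no net growth.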

Tests used:
Assay in all cases: NCI tumour cell line growth inhibition, 48 h
[1] = tested on: HT29 colon
[2] = tested on: 786-0 renal
[3] = tested on: SK-MEL-5 melanoma
[4] = tested on: MOLT-4 leukemia
[5] = tested on: MDA-MB-435
[6] = tested on: SNB-19 CNS
[7] = tested on: SN12C renal
[8] = tested on: KM12 colon
[9] = tested on: OVCAR-5 ovarian
[10] = tested on: K-562 leukemia
[11] = tested on: MALME-3M melanoma
[12] = tested on: NCI-H460 lung
[13] = tested on: SF-539 CNS
[14] = tested on: RXF 393 renal
[15] = tested on: SW-620 colon
[16] = tested on: SNB-75 CNS
[17] = tested on: U251 CNS
[18] = tested on: SF-295 CNS
[19] = tested on: NCI-H226 lung
[20] = tested on: UACC-62 melanoma

| Compound | TGI [1] | TGI [2] | TGI [3] | TGI [4] | TGI [5] | TGI [6] | TGI [7] | TGI [8] | TGI [9] | TGI [10] | TGI [11] | TGI [12] | TGI [13] | TGI [14] | TGI [15] | TGI [16] | TGI [17] | TGI [18] | TGI [19] | TGI [20] |
| --- | --- | --- | --- | --- | --- | --- | --- | --- | --- | --- | --- | --- | --- | --- | --- | --- | --- | --- | --- | --- |
| COc1ccc2oc(=N)c(C(=O)NCc3ccccc3)cc2c1 | > 100 µM | > 100 µM | > 100 µM | > 100 µM | 34.2 µM | > 100 µM | > 100 µM | 29.6 µM | > 100 µM | 86.8 µM | 39.3 µM | > 100 µM | 56.6 µM | 42.4 µM | 55.6 µM | 35 µM | 37.2 µM | 65 µM | 85 µM | – |
| COC(=O)C1=CC2CCCC1(O)C(C(C)=O)C2 (centres undefined) | > 100 µM | 41.3 µM | > 100 µM | 43.8 µM | > 100 µM | > 100 µM | > 100 µM | > 100 µM | > 100 µM | > 100 µM | > 100 µM | > 100 µM | 26.6 µM | > 100 µM | > 100 µM | > 31.6 µM | > 100 µM | > 100 µM | > 100 µM | > 100 µM |
| C=CCOc1ccc(/C(N=Nc2ccc([N+](=O)[O-])cc2)=N/NC(=O)c2ccccc2)cc1OC | > 100 µM | > 100 µM | > 100 µM | > 100 µM | > 100 µM | > 100 µM | > 100 µM | > 100 µM | > 100 µM | – | > 100 µM | > 100 µM | > 100 µM | > 100 µM | > 100 µM | > 100 µM | > 100 µM | > 100 µM | > 100 µM | > 100 µM |
| O=C(C1OC1c1ccc(O)cc1)C12CC3CC(CC(C3)C1)C2 (centres undefined) | > 100 µM | 48.2 µM | > 100 µM | > 55.2 µM | > 55 µM | > 100 µM | > 69.7 µM | > 100 µM | > 100 µM | > 61.3 µM | 98.9 µM | > 100 µM | > 94.9 µM | > 100 µM | 70.3 µM | > 100 µM | > 100 µM | > 100 µM | > 100 µM | > 100 µM |
| CCOC(CN=C=S)OCC | > 10 µM | > 10 µM | > 10 µM | > 10 µM | > 10 µM | > 10 µM | > 10 µM | > 10 µM | – | > 10 µM | > 10 µM | > 10 µM | > 10 µM | > 10 µM | > 10 µM | > 10 µM | > 10 µM | > 10 µM | > 10 µM | > 10 µM |
| Cc1ccc(C2=Nc3cccc4cccc(c34)N2)cc1 | > 100 µM | > 100 µM | > 100 µM | > 100 µM | > 100 µM | > 100 µM | > 100 µM | > 100 µM | – | > 100 µM | > 100 µM | > 100 µM | > 100 µM | > 100 µM | > 100 µM | > 100 µM | > 100 µM | > 100 µM | > 100 µM | > 100 µM |
| Nc1ncnc2ccc(Sc3ccc4ncnc(N)c4c3)cc12 | > 100 µM | > 100 µM | > 100 µM | > 100 µM | > 100 µM | > 100 µM | > 100 µM | > 100 µM | > 100 µM | > 100 µM | > 100 µM | > 100 µM | > 100 µM | > 100 µM | > 100 µM | > 100 µM | > 100 µM | > 100 µM | > 100 µM | > 100 µM |
| O=C(/C=C(\O)c1ccccc1)C(=O)NNc1ccc([N+](=O)[O-])cc1[N+](=O)[O-] | – | 25.9 µM | 60.1 µM | 38.3 µM | > 100 µM | 74.6 µM | 31.8 µM | 33.7 µM | 58.7 µM | 95.1 µM | 82.4 µM | 40.2 µM | 33.5 µM | 35 µM | 34 µM | 30.9 µM | 28.1 µM | 29.8 µM | 50.4 µM | 31.1 µM |
| CC(=O)NC(CS/N=N/c1nc[nH]c1C(N)=O)C(=O)O (centres undefined) | > 100 µM | > 100 µM | > 100 µM | > 36.1 µM | > 100 µM | > 100 µM | > 55.9 µM | > 45.3 µM | > 100 µM | > 100 µM | > 29.3 µM | > 100 µM | > 100 µM | > 100 µM | > 100 µM | > 100 µM | > 100 µM | > 100 µM | > 100 µM | > 100 µM |
| CSc1ncc2c(C#N)c3sc4ccccc4n3c(=O)c2n1 | > 100 µM | > 100 µM | > 100 µM | > 100 µM | > 100 µM | > 100 µM | > 100 µM | > 100 µM | > 100 µM | > 100 µM | > 100 µM | > 100 µM | > 100 µM | > 100 µM | > 100 µM | > 100 µM | > 100 µM | > 100 µM | > 100 µM | > 100 µM |
| O=C1c2ccccc2S(=O)(=O)c2c1cccc2[N+](=O)[O-] | > 7.01 µM | 3.13 µM | 2.46 µM | 6.04 µM | 3.64 µM | > 10 µM | 6.56 µM | 5.08 µM | > 10 µM | > 10 µM | 3.02 µM | > 10 µM | 4.34 µM | 8.44 µM | 3.47 µM | > 9.55 µM | > 8.28 µM | > 10 µM | > 10 µM | 3.48 µM |
| CC(=O)OCOC(=O)CN(CC(=O)OCOC(C)=O)Cc1cc2c(cc1OC(C)=O)Oc1cc(OC(C)=O)c(CN(CC(=O)OCOC(C)=O)CC(=O)OCOC(C)=O)cc1C21OC(=O)c2ccccc21 | 1.88 µM | 1.41 µM | 2.12 µM | 0.843 µM | 2.02 µM | 6.16 µM | 2.83 µM | – | 11.1 µM | 0.401 µM | 1.88 µM | 1.45 µM | 1.05 µM | 1.43 µM | 3.64 µM | 9.39 µM | 8.5 µM | 11.1 µM | 2.86 µM | 1.19 µM |
